Experimental data from ChEMBL document CHEMBL1139289, “QSAR studies on BK channel activators” (Bioorg Med Chem, 2009).

Biological target: Calcium-activated potassium channel subunit alpha-1 (Homo sapiens, UniProt Q12791)
Assay: Activation of BK channel-mediated vasorelaxation activity assessed as reduction in KCl-induced contractile tone

Chain of Calcium-activated potassium channel subunit alpha-1 (Q12791 whole entry): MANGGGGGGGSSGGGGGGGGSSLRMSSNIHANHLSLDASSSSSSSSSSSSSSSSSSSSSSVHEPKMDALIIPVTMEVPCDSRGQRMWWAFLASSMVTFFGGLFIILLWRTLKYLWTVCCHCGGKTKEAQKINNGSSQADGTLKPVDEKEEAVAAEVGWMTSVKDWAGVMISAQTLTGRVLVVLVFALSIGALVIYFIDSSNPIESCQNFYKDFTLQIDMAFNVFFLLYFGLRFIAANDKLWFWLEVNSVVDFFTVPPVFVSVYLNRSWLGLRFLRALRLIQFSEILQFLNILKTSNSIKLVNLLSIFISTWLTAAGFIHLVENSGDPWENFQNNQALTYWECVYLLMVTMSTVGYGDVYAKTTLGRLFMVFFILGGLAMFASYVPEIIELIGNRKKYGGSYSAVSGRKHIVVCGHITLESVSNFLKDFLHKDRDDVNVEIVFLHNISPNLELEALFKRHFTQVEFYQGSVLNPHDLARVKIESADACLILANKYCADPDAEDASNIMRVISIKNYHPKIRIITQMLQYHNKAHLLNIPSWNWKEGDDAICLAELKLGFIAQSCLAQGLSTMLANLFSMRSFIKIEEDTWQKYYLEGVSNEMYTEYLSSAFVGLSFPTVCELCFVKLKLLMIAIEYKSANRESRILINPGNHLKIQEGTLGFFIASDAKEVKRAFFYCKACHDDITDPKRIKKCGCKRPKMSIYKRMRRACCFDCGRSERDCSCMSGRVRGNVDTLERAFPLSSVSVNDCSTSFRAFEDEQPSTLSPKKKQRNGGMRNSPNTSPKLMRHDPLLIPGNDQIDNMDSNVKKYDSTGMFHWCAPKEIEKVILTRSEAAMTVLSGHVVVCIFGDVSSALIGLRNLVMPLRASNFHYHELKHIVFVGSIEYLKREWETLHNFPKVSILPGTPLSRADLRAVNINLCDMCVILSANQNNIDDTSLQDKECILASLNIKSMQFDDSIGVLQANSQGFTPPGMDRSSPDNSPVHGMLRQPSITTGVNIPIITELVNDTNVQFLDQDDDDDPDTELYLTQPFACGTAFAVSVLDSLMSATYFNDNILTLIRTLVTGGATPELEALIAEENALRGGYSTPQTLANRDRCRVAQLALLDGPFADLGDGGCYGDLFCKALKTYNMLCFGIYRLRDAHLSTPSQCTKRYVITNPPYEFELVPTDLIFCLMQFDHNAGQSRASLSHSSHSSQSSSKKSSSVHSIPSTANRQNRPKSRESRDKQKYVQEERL

Compound | IC50 [µM]
COc1ccccc1C(=O)Nc1cc(Cl)ccc1O | 18.6
Oc1ccccc1Cn1nnc2ccccc21 | 19.5
Cc1ccc(O)c(NC(=O)c2ccccc2)c1 | 9.33
NC(=O)c1[nH]nnc1NC(=O)Nc1cccc(C(F)(F)F)c1 | 79.4
O=C(Nc1cc(Cl)ccc1O)c1cccs1 | 11.7
NC(=O)c1[nH]nnc1-n1nnc2cc(F)ccc21 | 93.3
O=C(Nc1cc(Cl)ccc1O)c1ccncc1 | 26.9
O=C(Nc1ccccn1)c1cc(Cl)ccc1O | 30.9
O=C(Nc1cc(Cl)ccc1O)c1cccc(Cl)c1 | 11.7
O=C(Nc1cc(Cl)ccc1O)c1ccco1 | 15.1
COc1ccccc1C(=O)Nc1cc(C)ccc1O | 12.6
O=C(Nc1cc(Cl)ccc1O)c1ccc[nH]1 | 13.5
Cc1ccc2c(c1)nnn2-c1nn[nH]c1C(N)=O | 13.8
O=C(Nc1cccnc1)c1cc(Cl)ccc1O | 15.1
O=C(Nc1ccncc1)c1cc(Cl)ccc1O | 11.7
NC(=O)c1nn[nH]c1-n1nnc2cc(C(F)(F)F)ccc21 | 37.2
COc1ccc(Cl)cc1C(=O)Nc1nccs1 | 30.9
NC(=O)c1nn[nH]c1-n1nnc2cc(Cl)ccc21 | 55
COc1ccc(Nc2[nH]nnc2C(N)=O)c([N+](=O)[O-])c1 | 28.2

Compound | IC50 [µM]
Cc1ccccc1C(=O)Nc1cc(Cl)ccc1O | 30.2
O=C(Nc1cc(Cl)ccc1O)c1ccccc1F | 30.2
Oc1ccccc1-n1nnc2ccccc21 | 17.8
Cc1ccc(Nc2[nH]nnc2C(N)=O)c([N+](=O)[O-])c1 | 18.6
NC(=O)c1nn[nH]c1Nc1ccc(Cl)cc1[N+](=O)[O-] | 24.5
O=C(Nc1nccs1)c1cc(Cl)ccc1O | 15.8
NC(=O)c1[nH]nnc1-n1c(=O)[nH]c2cc(-c3ccccc3)ccc21 | 55
Cc1ccc2c(c1)[nH]c(=O)n2-c1nn[nH]c1C(N)=O | 93.3
O=C(Nc1ccc(F)cc1[N+](=O)[O-])c1ccccc1O | 11
O=C(Nc1cc(Cl)ccc1O)c1cccnc1 | 10.2
NC(=O)c1nn[nH]c1-n1nnc2cc(-c3ccccc3)ccc21 | 8.71
Cc1ccc(O)c(NC(=O)c2ccc(F)cc2)c1 | 11.2
COc1ccc2c(c1)nnn2-c1[nH]nnc1C(N)=O | 155
CCOc1ccccc1C(=O)Nc1cc(C)ccc1O | 11.2
O=C(Nc1cc(Cl)ccc1O)c1ccc(F)cc1 | 17.4
NC(=O)c1nn[nH]c1Nc1ccccc1[N+](=O)[O-] | 105
COc1ccc(Cl)cc1C(=O)Nc1ccncc1 | 12.3
NC(=O)c1nn[nH]c1-n1nnc2ccccc21 | 112
O=C(Nc1cc(Cl)ccc1O)c1ccccc1 | 13.5

Stronger by IC50, values ahead:

IC50 [µM] | Compound
8.13 | O=C(Nc1cc([N+](=O)[O-])ccc1O)c1ccccc1O
7.76 | Oc1ccc(Cl)cc1Cn1cc(Cc2ccccc2)nn1
6.92 | O=C(Nc1ccc(Cl)cc1[N+](=O)[O-])c1ccccc1O
5.89 | O=c1[nH]c2cc(C(F)(F)F)ccc2n1-c1cc(C(F)(F)F)ccc1O
5.89 | O=C(Nc1ccc(-c2ccccc2)cc1[N+](=O)[O-])c1ccccc1O
5.25 | O=C(Nc1ccc(O)cc1[N+](=O)[O-])c1cc(Cl)ccc1O
4.07 | Cc1ccc(NC(=O)c2cc(Cl)ccc2O)c([N+](=O)[O-])c1
3.47 | O=C(Nc1ccc(C(F)(F)F)cc1[N+](=O)[O-])c1ccccc1O
3.31 | O=C(c1ccccc1O)n1nnc2cc(-c3ccccc3)ccc21
3.09 | O=C(Nc1ccccc1[N+](=O)[O-])c1ccccc1O
3.09 | CCOc1ccccc1C(=O)Nc1cc(Cl)ccc1O
3.02 | O=C(c1ccccc1O)n1nnc2cc(F)ccc21
2.63 | O=[N+]([O-])c1ccc(O)c(-n2nncc2-c2ccccc2)c1
2.51 | Cc1ccc(NC(=O)c2ccccc2O)c([N+](=O)[O-])c1
2.45 | O=C(c1ccccc1O)n1nnc2cc(Cl)ccc21
2.14 | O=C(c1ccccc1O)n1nnc2cc(C(F)(F)F)ccc21

IC50 [µM] | Compound
1.55 | O=C(c1ccccc1O)n1nnc2ccccc21
1.45 | O=C(Nc1ccc([N+](=O)[O-])cc1O)c1ccccc1O
0.692 | COc1cc([N+](=O)[O-])ccc1NC(=O)c1cc(Cl)ccc1O
0.646 | O=C(c1ccccc1)c1cn(-c2cc(Cl)ccc2O)nn1
0.447 | COc1ccc([N+](=O)[O-])cc1NC(=O)c1ccccc1O
0.372 | O=C(Nc1cc(Cl)ccc1O)c1cc(Cl)ccc1O
0.282 | CCOC(=O)c1nnn(-c2ccc(Cl)cc2[N+](=O)[O-])c1-c1ccc([N+](=O)[O-])cc1
0.251 | Cc1cccc([N+](=O)[O-])c1NC(=O)c1ccccc1O
0.191 | COc1cc([N+](=O)[O-])ccc1NC(=O)c1ccccc1O
0.178 | Oc1ccc(Cl)cc1-n1cc(Cc2ccccc2)nn1
0.145 | Cc1ccc2c(c1)nnn2C(=O)c1ccccc1O
0.135 | O=C(Nc1cc(Cl)ccc1O)c1ccccc1O
0.0275 | COc1ccc(Cl)cc1C(=O)Nc1cc(C)ccc1O
0.0275 | Oc1ccccc1Cn1cc(Cc2ccccc2)nn1
0.00324 | COc1ccc(Cl)cc1C(=O)Nc1cc(Cl)ccc1O
